# “And” between values parts separate entries of the source, which are not always exact repeats. Equal entries are not always repeated. Marks after values point to notes of the source that are not given here.
# Key:
# [1] = Example 6: modeling data on edema risk based on a Phase 2A study (NCT00920764); design: species or system human
# From the text: The graph was made by overlaying receptor occupancy data. (See also Table 20, below.)
# [2] = tested on: subjects with type 2 diabetes and nephropathy; assay: Example 2: Phase 2b randomized, double-blind, placebo-controlled 12-week study conducted in Japan; conditions: for Any adverse event / Any adverse event leading to discontinuation of study drug / Death / Fatal adverse event / Possibly or probably drug-related adverse event / Serious adverse event / Severe adverse event: N = 19; for Weight, LS Mean Change from Baseline (SE): Week 12; for UACR Change from Baseline LS Mean (SE) / UACR Geometric Mean Change (Percent): baseline to final on-treatment measurement
# Procedure: The primary efficacy endpoint in this study was the change from Baseline to Week 12 in log-transformed UACR with the primary analysis conducted using MMRM with fixed effects for treatment, visit, and treatment-by-visit interaction, with baseline measurement and baseline-by-visit interaction as covariates.
# All safety analyses were performed on treatment-emergent adverse events only. Treatment-emergent adverse events were defined as those that first occurred or worsened on or after the date of first dose of study drug through 30 days after the last dose of study drug.
# [3] = tested on: subjects with type 2 diabetes and nephropathy; assay: Example 4: combined data of Examples 1 and 2, statin / non-statin sub-populations, total and LDL cholesterol; assay type: in vivo, human; design: Total C, Mean Change / LDL, Mean Change: unit not given here
# Procedure: A review of the data obtained from the studies detailed in Examples 1 and 2, above, with respect to total serum cholesterol and serum LDL cholesterol, indicated a meaningful reduction was achieved relative to baseline for both. For example, although the reduction in total serum cholesterol and serum LDL cholesterol for subjects receiving a 0.75 mg dose of atrasentan, after 12 weeks of therapy, varied, the average for both of the studies detailed in Examples 1 and 2 was approximately 14%. As a result, the data obtained from these studies as further reviewed subsequent to collection and a sub-population of subjects in each study was identified as receiving or taking a statin in combination with the atrasentan dose (either a 0.75 mg or 1.25 mg dose). The data relating to the impact of atrasentan on total serum cholesterol and serum LDL cholesterol from each study for this sub-population was combined and a new average (mean) baseline, as well as change relative thereto over the time period of the study, was calculated for each of the total serum cholesterol and serum LDL cholesterol. For purposes of comparison, data relating to the impact of atrasentan on total serum cholesterol and serum LDL cholesterol for each study for subjects that were not receiving or taking a statin was combined and a new average (mean) baseline, as well as change relative thereto over the time period of the study, was also calculated for each of the total serum cholesterol and serum LDL cholesterol.
# [4] = subjects not receiving statins, 0.75 mg
# [5] = subjects receiving statins and 0.75 mg of atrasentan
smiles,measurement,setting,value
"CCCCN(CCCC)C(=O)CN1C[C@H](c2ccc3c(c2)OCO3)[C@@H](C(=O)O)[C@@H]1c1ccc(OC)cc1 [Atrasentan, (2R,3R,4S)-4-(1,3-benzodioxol-5-yl)-1-[2-(dibutylamino)-2-oxoethyl]-2-(4-methoxyphenyl)pyrrolidine-3-carboxylic acid]",Risk of edema,[1]; Dose 0.25 mg,15%
same,Risk of edema,[1]; Dose 0.75 mg,22%
same,Risk of edema,[1]; Dose 1.75 mg,43%
same,Any adverse event,[2]; 0.75 mg,17 (89.5) N (%) of Subjects
same,Any adverse event leading to discontinuation of study drug,[2]; 0.75 mg,1 (5.3) N (%) of Subjects
same,Death,[2]; 0.75 mg,0 N (%) of Subjects
same,Fatal adverse event,[2]; 0.75 mg,0 N (%) of Subjects
same,Possibly or probably drug-related adverse event,[2]; 0.75 mg,7 (36.8) N (%) of Subjects
same,Serious adverse event,[2]; 0.75 mg,3 (15.8) N (%) of Subjects
same,Severe adverse event,[2]; 0.75 mg,1 (5.3) N (%) of Subjects
same,"Cholesterol, Difference (95% CI) from placebo",[2]; 0.75 mg/day,"−26.1 (−42.77, −9.33) mg/dL"
same,"Cholesterol, Final On-Treatment Visit Mean (SD)",[2]; 0.75 mg/day,173.5 (30.52) mg/dL
same,"Cholesterol, LS Mean Change from Baseline (SE)",[2]; 0.75 mg/day,−28.0 (5.27) mg/dL
same,"HDL-C, Difference (95% CI) from placebo",[2]; 0.75 mg/day,"−1.0 (−6.89, 4.91) mg/dL"
same,"HDL-C, Final On-Treatment Visit Mean (SD)",[2]; 0.75 mg/day,48.8 (12.65) mg/dL
same,"HDL-C, LS Mean Change from Baseline (SE)",[2]; 0.75 mg/day,−2.8 (1.86) mg/dL
same,Had ≧30% Reduction in UACR and No Edema (no moderate or severe adverse event of edema),[2]; 0.75 mg/day,8 (42.1) Number (%) of Subjects
same,"Hemoglobin, Difference (95% CI) from placebo",[2]; 0.75 mg/day,"−1.22 (−1.863, −0.586) g/dL"
same,"Hemoglobin, Final On-Treatment Visit Mean (SD)",[2]; 0.75 mg/day,11.74 (1.963) g/dL
same,"LDL-C, Difference (95% CI) from placebo",[2]; 0.75 mg/day,"−19.4 (−33.56, −5.30) mg/dL"
same,"LDL-C, Final On-Treatment Visit Mean (SD)",[2]; 0.75 mg/day,94.4 (29.10) mg/dL
same,"LDL-C, LS Mean Change from Baseline (SE)",[2]; 0.75 mg/day,−18.6 (4.45) mg/dL
same,Percentage of Subjects with ≧30% Reduction in Log-Transformed UACR from Baseline to Final Measurement,[2]; 0.75 mg/day,52.6%
same,Percentage of Subjects with ≧40% Reduction in Log-Transformed UACR from Baseline to Final Measurement,[2]; 0.75 mg/day,31.6%
same,Percentage of Subjects with ≧50% Reduction in Log-Transformed UACR from Baseline to Final Measurement,[2]; 0.75 mg/day,21.1%
same,"Triglycerides, Difference (95% CI) from placebo",[2]; 0.75 mg/day,"−32.9 (−74.44, 8.66) mg/dL"
same,"Triglycerides, Final On-Treatment Visit Mean (SD)",[2]; 0.75 mg/day,148.1 (64.63) mg/dL
same,"Triglycerides, LS Mean Change from Baseline (SE)",[2]; 0.75 mg/day,−28.8 (50.42) mg/dL
same,"Weight, Difference (95% CI) from placebo",[2]; 0.75 mg/day,"0.1 (−1.13, 1.36) kg"
same,"Weight, Final On-Treatment Visit Mean (SD)",[2]; 0.75 mg/day,69.4 (13.26) kg
same,fatigue leading to discontinuation,[2]; 0.75 mg/day,1.7%
same,"geometric mean reduction in UACR, baseline to final on-treatment measurement",[2]; 0.75 mg/day,31.44%
same,incidence of peripheral edema,[2]; 0.75 mg/day,21.1%
same,mean (non-ambulatory) diastolic blood pressure change from baseline to last on-treatment visit,[2]; 0.75 mg/day,−5.74 mmHg
same,mean ambulatory diastolic blood pressure change from baseline to Week 10,[2]; 0.75 mg/day,−6.0 mmHg
same,mean ambulatory systolic blood pressure change from baseline to Week 10,[2]; 0.75 mg/day,−5.1 mmHg
same,mean duration of edema,[2]; 0.75 mg/day,38.2 days
same,peripheral edema leading to discontinuation,[2]; 0.75 mg/day,3.4%
same,subjects discontinued from the study,[2]; 0.75 mg/day,10.5%
same,subjects who discontinued study drug because of adverse events,[2]; 0.75 mg/day,5.3%
same,UACR Between-group Comparison Difference (95% CI),[2]; 0.75 mg/day vs placebo,"−0.41 (−0.69, −0.13)"
same,"mean eGFR, difference between atrasentan and placebo","[2]; 0.75 mg/day, Week 10",statistically significant
same,"Weight, LS Mean Change from Baseline (SE)",[2]; 0.75 mg/day,0.2 (0.45) kg
same,UACR Change from Baseline LS Mean (SE),[2]; 0.75 mg/day,−0.38 (0.10) log mg/g creatinine
same,UACR Geometric Mean Change (Percent),[2]; 0.75 mg/day,−31.44%
same,mean (non-ambulatory) systolic blood pressure change from baseline to last on-treatment visit,"[2]; 0.75 mg/day, increased",1.93 mmHg
same,Any adverse event,[2]; 1.25 mg,14 (73.7) N (%) of Subjects
same,Any adverse event leading to discontinuation of study drug,[2]; 1.25 mg,5 (26.3)* N (%) of Subjects
same,Death,[2]; 1.25 mg,0 N (%) of Subjects
same,Fatal adverse event,[2]; 1.25 mg,0 N (%) of Subjects
same,Possibly or probably drug-related adverse event,[2]; 1.25 mg,10 (52.6) N (%) of Subjects
same,Serious adverse event,[2]; 1.25 mg,2 (10.5) N (%) of Subjects
same,Severe adverse event,[2]; 1.25 mg,1 (5.3) N (%) of Subjects
same,"Cholesterol, Difference (95% CI) from placebo",[2]; 1.25 mg/day,"−25.0 (−41.95, −8.04) mg/dL"
same,"Cholesterol, Final On-Treatment Visit Mean (SD)",[2]; 1.25 mg/day,169.6 (37.60) mg/dL
same,"Cholesterol, LS Mean Change from Baseline (SE)",[2]; 1.25 mg/day,−26.9 (5.41) mg/dL
same,"HDL-C, Difference (95% CI) from placebo",[2]; 1.25 mg/day,"−2.3 (−8.24, 3.73) mg/dL"
same,"HDL-C, Final On-Treatment Visit Mean (SD)",[2]; 1.25 mg/day,46.4 (12.12) mg/dL
same,"HDL-C, LS Mean Change from Baseline (SE)",[2]; 1.25 mg/day,−4.1 (1.91) mg/dL
same,Had ≧30% Reduction in UACR and No Edema (no moderate or severe adverse event of edema),[2]; 1.25 mg/day,9 (52.9) Number (%) of Subjects
same,"Hemoglobin, Difference (95% CI) from placebo",[2]; 1.25 mg/day,"−1.14 (−1.773, −0.497) g/dL"
same,"Hemoglobin, Final On-Treatment Visit Mean (SD)",[2]; 1.25 mg/day,11.67 (2.300) g/dL
same,"LDL-C, Difference (95% CI) from placebo",[2]; 1.25 mg/day,"−19.7 (−34.02, −5.36) mg/dL"
same,"LDL-C, Final On-Treatment Visit Mean (SD)",[2]; 1.25 mg/day,92.1 (35.00) mg/dL
same,"LDL-C, LS Mean Change from Baseline (SE)",[2]; 1.25 mg/day,−18.9 (4.57) mg/dL
same,Percentage of Subjects with ≧30% Reduction in Log-Transformed UACR from Baseline to Final Measurement,[2]; 1.25 mg/day,64.7%
same,Percentage of Subjects with ≧40% Reduction in Log-Transformed UACR from Baseline to Final Measurement,[2]; 1.25 mg/day,64.7%
same,Percentage of Subjects with ≧50% Reduction in Log-Transformed UACR from Baseline to Final Measurement,[2]; 1.25 mg/day,52.9%
same,"Triglycerides, Difference (95% CI) from placebo",[2]; 1.25 mg/day,"−16.5 (−58.63, 25.64) mg/dL"
same,"Triglycerides, Final On-Treatment Visit Mean (SD)",[2]; 1.25 mg/day,160.6 (73.37) mg/dL
same,"Triglycerides, LS Mean Change from Baseline (SE)",[2]; 1.25 mg/day,−12.4 (68.76) mg/dL
same,"Weight, Difference (95% CI) from placebo",[2]; 1.25 mg/day,"0.4 (−0.96, 1.68) kg"
same,"Weight, Final On-Treatment Visit Mean (SD)",[2]; 1.25 mg/day,74.9 (14.51) kg
same,fatigue leading to discontinuation,[2]; 1.25 mg/day,3.1%
same,"geometric mean reduction in UACR, baseline to final on-treatment measurement",[2]; 1.25 mg/day,53.76%
same,incidence of peripheral edema,[2]; 1.25 mg/day,31.6%
same,mean (non-ambulatory) diastolic blood pressure change from baseline to last on-treatment visit,[2]; 1.25 mg/day,−4.33 mmHg
same,mean (non-ambulatory) systolic blood pressure change from baseline to last on-treatment visit,[2]; 1.25 mg/day,−2.93 mmHg
same,mean ambulatory diastolic blood pressure change from baseline to Week 10,[2]; 1.25 mg/day,−6.8 mmHg
same,mean ambulatory systolic blood pressure change from baseline to Week 10,[2]; 1.25 mg/day,−7.2 mmHg
same,mean duration of edema,[2]; 1.25 mg/day,54.8 days
same,peripheral edema leading to discontinuation,[2]; 1.25 mg/day,4.7%
same,subjects discontinued from the study,[2]; 1.25 mg/day,26.3%
same,subjects who discontinued study drug because of adverse events,[2]; 1.25 mg/day,26.3%
same,UACR Between-group Comparison Difference (95% CI),[2]; 1.25 mg/day vs placebo,"−0.80 (−1.09, −0.52)"
same,"Weight, LS Mean Change from Baseline (SE)",[2]; 1.25 mg/day,0.4 kg and 0.4 (0.49) kg
same,"mean eGFR, difference between atrasentan and placebo","[2]; 1.25 mg/day, Weeks 6, 8, and 10",statistically significant
same,UACR Change from Baseline LS Mean (SE),[2]; 1.25 mg/day,−0.77 (0.10) log mg/g creatinine
same,UACR Geometric Mean Change (Percent),[2]; 1.25 mg/day,−53.76%
same,mean HDL-C change,"[2]; all treatment groups, changes not clinically meaningful",decreased slightly
same,"cholesterol and LDL-C, differences from placebo","[2]; both atrasentan groups (0.75 mg, 1.25 mg)",statistically significant
same,hemoglobin relative to placebo,"[2]; both atrasentan groups, at Week 2 and throughout the study",Statistically significantly mean decreases
same,"reduction in total serum cholesterol and serum LDL cholesterol relative to baseline, average for both studies (Examples 1 and 2)","[3]; 0.75 mg dose, after 12 weeks of therapy",approximately 14%
same,"LDL, % Change","[3]; Non-Statin, 0.75 mg",−13.1%
same,"LDL, Mean Change","[3]; Non-Statin, 0.75 mg",−13.4
same,"Total C, % Change","[3]; Non-Statin, 0.75 mg",−9.3%
same,"Total C, Mean Change","[3]; Non-Statin, 0.75 mg",−14.9
same,"LDL, % Change","[3]; Non-Statin, 1.25 mg",−18.8%
same,"LDL, Mean Change","[3]; Non-Statin, 1.25 mg",−21.0
same,"Total C, % Change","[3]; Non-Statin, 1.25 mg",−12.8%
same,"Total C, Mean Change","[3]; Non-Statin, 1.25 mg",−18.4
same,"LDL, % Change","[3]; Statin sub-population, 0.75 mg",−15.4%
same,"LDL, Mean Change","[3]; Statin sub-population, 0.75 mg",−12.8
same,"Total C, % Change","[3]; Statin sub-population, 0.75 mg",−10.4%
same,"Total C, Mean Change","[3]; Statin sub-population, 0.75 mg",−17.1
same,"LDL, % Change","[3]; Statin sub-population, 1.25 mg",−14.2%
same,"LDL, Mean Change","[3]; Statin sub-population, 1.25 mg",−11.6
same,"Total C, % Change","[3]; Statin sub-population, 1.25 mg",−10.4%
same,"Total C, Mean Change","[3]; Statin sub-population, 1.25 mg",−17.1
same,reduction in LDL cholesterol,[3]; [4],13%
same,reduction in total cholesterol,[3]; [4],9%
same,reduction in LDL cholesterol,[3]; [5],15%
same,reduction in total cholesterol,[3]; [5],10%
